`CC(C)CCN1C(=O)CC2CCC(C)C3CCC4(C)OOC23C1O4` (stereo not given) showed a logP of 4.16.
`CO[C@H]1O[C@@H]2O[C@@]3(C)CC[C@H]4[C@H](C)CC[C@@H]([C@H]1C)[C@@]24OO3` showed a logP of 3.53.
For `CC1CCC2CC(=O)N(Cc3ccc(Cl)cc3)C3OC4(C)CCC1C23OO4` (stereo not given), the logP was 4.32.
For `C[C@@H]1CC[C@H]2[C@@H](C)C(=O)O[C@@H]3O[C@@]4(C)CC[C@@H]1[C@]32OO4`, the logP was 2.9.
Work on `CC1CCC2CC(=O)N(C)C3OC4(C)CCC1C23OO4` (stereo not given) yielded a logP of 2.76.
`CC1CCC2CC(=O)N(CC(=O)O)C3OC4(C)CCC1C23OO4` (stereo not given) showed a logP of 1.75.
`CC(C)CN1C(=O)CC2CCC(C)C3CCC4(C)OOC23C1O4` (stereo not given) showed a logP of 3.66.
`CCCCCN1C(=O)CC2CCC(C)C3CCC4(C)OOC23C1O4` (stereo not given) gave a logP of 4.24.
Work on `CC1CCC2CC(=O)N(CCCc3ccccc3)C3OC4(C)CCC1C23OO4` (stereo not given) yielded a logP of 4.39.
Work on `CCCN1C(=O)CC2CCC(C)C3CCC4(C)OOC23C1O4` (stereo not given) yielded a logP of 3.4.

— the OPERA property sets (Mansouri et al. 2018)
